Source: PubChem BioAssay AID264 (DTP/NCI, 2004)
Results filed as inconclusive are left out.

System: nude mice, LX-1 lung xenograft intrarenal, tumor weight T/C
Assay: NCI In Vivo Anticancer Drug Screen. Data for tumor model Human Lung LX-1 Xenograft (intrarenal inoculation) in NU/NU Swiss (nude) mice
Conditions: endpoint: mean tumor weight change, schedule: Q04DX003 (sc), vehicle: saline with Tween-80, higher = larger tumour
Procedure, shortened: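 Activity was scored by measuring tumors in treated animals and in vehicle controls, then reporting the treated result as a fraction of the control result.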

For `CCC1=C2C(=O)c3ccccc3C2=C(C)S(=O)(=O)O1`, the T/C (dose: 300.0 mg/kg/injection) was 66 % of control, the T/C (dose: 600.0 mg/kg/injection) was 70 % of control and the T/C (dose: 1200.0 mg/kg/injection) was 89 % of control. The T/C (dose: 2400.0 mg/kg/injection) was 86 % of control.
